Like-named read-outs stand apart in the source and are kept apart here.
Legend:
[1] = test system: RD TE32; assay: MTT cell viability assay, RD TE32; assay type: cell-based, human; conditions: for IC50: Homo sapiens
From the text: (§1) Blokhin National Medical Research Center of Oncology (the Ministry of Health of the Russian Federation, Moscow).

[2] = test system: HEpG2; assay: MTT cell viability assay, HEpG2; assay type: cell-based, human; conditions: for IC50: Homo sapiens
From the text: as §1

[3] = test system: A549; assay: MTT cell viability assay, A549; assay type: cell-based, human; conditions: for IC50: Homo sapiens
From the text: as §1

[4] = test system: HCT116; assay: MTT cell viability assay, HCT116; assay type: cell-based, human; conditions: for IC50: Homo sapiens, HCT-116
From the text: as §1

[5] = test system: MS; assay: MTT cell viability assay, MS; assay type: cell-based, human; conditions: for IC50: Homo sapiens;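 as to IC50 (mean ± SD): MS is a melanocyte cell line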
From the text: as §1

[6] = test system: MCF-7; assay: MTT cell viability assay, MCF-7; assay type: cell-based, human; conditions: for IC50: Homo sapiens, MCF7
From the text: as §1

[7] = test system: PC-3; assay: MTT cell viability assay, PC-3; assay type: cell-based, human; conditions: for IC50: Homo sapiens
From the text: as §1

[8] = test system: HBL-100; assay: MTT cell viability assay, HBL-100; assay type: cell-based, human; conditions: for IC50: Homo sapiens
Experimental: (§2) The cells were cultured in a humidified CO2 incubator (model 460-CE; Thermo Fisher Scientific, Waltham, MA, USA) at +37 °C and 5% CO2.
(§3) The percentage of the viable cells was calculated according to the following equation: cell viability (%) = 100 × (mean absorbance in the treatment group/mean absorbance in the control group). The results were expressed pictorially using Prism 6.0 (GraphPad Software, Boston, MA, USA).

[9] = test system: HEK293; assay: MTT cell viability assay, HEK293; assay type: cell-based; conditions: Homo sapiens
From the text: as §1

[10] = test system: HBL-100/Dox; assay: MTT cell viability assay, HBL-100/Dox; assay type: cell-based, human; conditions: for IC50: Homo sapiens
Experimental: as §2, §3

[11] = test system: human cancer cell lines; assay: MTT assay, panel of cancer cell lines
Experimental: In this study, the human embryonic kidney cell line HEK293 was used as the non-cancerous cell line.
To investigate the cytotoxic activity of the compounds under study, the MTT colorimetric assay [45] was performed. […] After 72 h, 20 μL of 5 mg/mL solution of MTT (PanEco, Moscow, Russia), in sterile phosphate-buffered saline (PBS; PanEco, Moscow, Russia), was added to each well and further incubated for 4 h. Then, the medium with the compounds was removed, and the formed formazan crystals were dissolved in 100 μL of DMSO. […] The IC50 values were determined from dose-dependent curves, using Prism 6.0 (GraphPad Software, Boston, MA, USA).

[12] = Table S1, RD TE32, read-out: IC50 (mean ± SD)
[13] = Table S1, HEpG2, read-out: IC50 (mean ± SD)
[14] = Table S1, A549, read-out: IC50 (mean ± SD)
[15] = Table S1, HCT116, read-out: IC50 (mean ± SD)
[16] = Table S1, MS, read-out: IC50 (mean ± SD)
[17] = Table S1, MCF-7, read-out: IC50 (mean ± SD)
[18] = Table S1, PC-3, read-out: IC50 (mean ± SD)
[19] = Table S1, HBL-100, read-out: IC50 (mean ± SD)
[20] = Table S1, HEK293, read-out: IC50 (mean ± SD)
[21] = HBL-100, read-out: IC50 (mean ± SD)

For CC(C)C1CC[C@]2(CO)CC[C@]3(C)C(CCC4[C@@]5(C)C[C@@H](C#N)CC(=O)C5CC[C@]43C)C12 (stereo partly drawn) [compound 16, 2-Cyano-28-hydroxy-4-oxo-3,4-seco-3,23-dinor-2,24-cyclolupane], the IC50 [1, 12] was greater than 100 µM, the IC50 [2, 13] was greater than 100 µM and the IC50 [3, 14] was greater than 100 µM. It also gave an IC50 [4, 15] greater than 200 µM, an IC50 [5, 16] greater than 100 µM and an IC50 [6, 17] greater than 100 µM. The IC50 [7, 18] was greater than 100 µM, the IC50 [8, 19] was greater than 100 µM and the IC50 [9, 20] was greater than 100 µM. For the same compound, the IC50 [10, 21] was greater than 200 µM and the melting point was 166.6 °C.

For C=C(CBr)C1CC[C@]2(C)C(CCC3C4C(C(C)C)CC[C@]4(COC(=O)c4ccccc4)CC[C@]32C)[C@@]1(C)CCC#N (stereo partly drawn) [compound 6, 28-Benzoyloxy-24-bromo-2-cyano-3,4-seco-3-norlup-4(23)-ene], the IC50 [1, 12] was greater than 200 µM, the IC50 [2, 13] was greater than 100 µM and the IC50 [3, 14] was greater than 100 µM. The IC50 [4, 15] was greater than 200 µM, the IC50 [5, 16] was greater than 100 µM and the IC50 [6, 17] was greater than 200 µM. It also gave an IC50 [7, 18] greater than 100 µM, an IC50 [8, 19] greater than 100 µM and an IC50 [9, 20] greater than 200 µM. It also gave an IC50 [10, 21] greater than 200 µM and a melting point of 87.9 °C.

With CC(C)C1CC[C@]2(COC(=O)c3ccccc3)CC[C@]3(C)C(CCC4[C@@](C)(CCC#N)C(C(=O)CBr)CC[C@]43C)C12 (stereo partly drawn) [compound 28, 28-Benzoyloxy-24-bromo-2-cyano-4-oxo-3,4-seco-3,23-dinorlupane] the IC50 [1, 12] was greater than 100 µM, the IC50 [2, 13] was greater than 100 µM and the IC50 [3, 14] was greater than 100 µM. The IC50 [4, 15] was greater than 100 µM, the IC50 [5, 16] was greater than 100 µM and the IC50 [6, 17] was 86.1 ± 10.1 µM. It also gave an IC50 [7, 18] greater than 100 µM, an IC50 [8, 19] greater than 100 µM and an IC50 [9, 20] greater than 100 µM. It also gave an IC50 [10, 21] greater than 200 µM and a melting point of 91.6 °C.

In the case of C=C1C=C(C#N)C[C@@]2(C)C1CC[C@]1(C)C2CCC2C3C(C(C)C)CC[C@]3(CO)CC[C@]21C (stereo partly drawn) [compound 8, 2-Cyano-28-hydroxy-3,4-seco-3-nor-2,24-cyclolup-2(24),4(23)-diene], the IC50 [1, 12] is reported as greater than 200 µM, the IC50 [2, 13] is reported as greater than 100 µM and the IC50 [3, 14] is reported as greater than 100 µM. It also gave an IC50 [4, 15] greater than 200 µM, an IC50 [5, 16] greater than 100 µM and an IC50 [6, 17] greater than 100 µM. The IC50 [7, 18] was greater than 100 µM, the IC50 [8, 19] was greater than 100 µM and the IC50 [9, 20] was greater than 100 µM. It also gave an IC50 [10, 21] greater than 200 µM and a melting point of 196.1 °C.

In the case of C=C1C[C@H](C#N)C[C@@]2(C)C1CC[C@]1(C)C2CCC2C3C(C(C)C)CC[C@]3(CO)CC[C@]21C (stereo partly drawn) [compound 12, 2-Cyano-28-hydroxy-3,4-seco-3-nor-2,24-cyclolup-4(23)-ene], the IC50 ([1]; RD TE32, MTT, 72 h of treatment, read-out: IC50 Values (Mean ± SD)) is reported as 98.6 ± 2.3 µM, the IC50 [1, 12] is reported as 98.6 ± 2.33 µM and the “Selectivity index (SI)” value ([1]; ratio of IC50 values healthy (HEK293) / RD TE32) is reported as 0.78. For the same compound, the IC50 ([2]; HEpG2, MTT, 72 h of treatment, read-out: IC50 Values (Mean ± SD)) was greater than 100 µM, the “Selectivity index (SI)” value ([2]; ratio of IC50 values healthy (HEK293) / HEpG2) was less than 0.77 and the IC50 ([3]; A549, MTT, 72 h of treatment, read-out: IC50 Values (Mean ± SD)) was 44.4 ± 2.4 µM. The “Selectivity index (SI)” value ([3]; ratio of IC50 values healthy (HEK293) / A549) was 1.72, the IC50 ([4]; HCT116, MTT, 72 h of treatment, read-out: IC50 Values (Mean ± SD)) was 51 ± 3.7 µM and the IC50 [4, 15] was 51 ± 3.67 µM. The “Selectivity index (SI)” value ([4]; ratio of IC50 values healthy (HEK293) / HCT116) was 1.50, the IC50 ([5]; MS, MTT, 72 h of treatment, read-out: IC50 Values (Mean ± SD)) was greater than 200 µM and the “Selectivity index (SI)” value ([5]; ratio of IC50 values healthy (HEK293) / MS) was less than 0.38. The IC50 ([6]; MCF-7, MTT, 72 h of treatment, read-out: IC50 Values (Mean ± SD)) was 64.2 ± 3 µM, the IC50 [6, 17] was 64.2 ± 3.01 µM and the “Selectivity index (SI)” value ([6]; ratio of IC50 values healthy (HEK293) / MCF-7) was 1.19. The IC50 ([7]; PC-3, MTT, 72 h of treatment, read-out: IC50 Values (Mean ± SD)) was 55.7 ± 4.9 µM, the IC50 [7, 18] was 55.7 ± 4.89 µM and the “Selectivity index (SI)” value ([7]; ratio of IC50 values healthy (HEK293) / PC-3) was 1.37. The IC50 ([8]; HBL-100, MTT, 72 h of treatment, read-out: IC50 Values (Mean ± SD)) was 36.6 ± 1.4 µM, the IC50 [8, 19] was 36.6 ± 1.44 µM and the “Selectivity index (SI)” value ([8]; ratio of IC50 values healthy (HEK293) / HBL-100) was 2.09. The IC50 ([11]; Homo sapiens, read-out: moderate activity (range)) was 16 to 77.8 µM, the “cytotoxicity in the screening studies” value ([11]; MTT screening, Table S1) was “relatively weak or moderate cytotoxicity” and the IC50 ([9]; HEK293, MTT, 72 h of treatment, read-out: IC50 Values (Mean ± SD)) was 76.5 ± 2.5 µM. For the same compound, the IC50 [9, 20] was 76.5 ± 2.49 µM, the IC50 ([10]; HBL-100, 72 h, read-out: IC50 Values (Mean ± SD)) was 63 ± 1.9 µM and the IC50 [10, 21] was 63 ± 1.92 µM. The “Selectivity index (SI)” value ([10]; ratio of IC50 values healthy (HEK293) / HBL-100/Dox) was 1.21 and the melting point was 185.1 °C.

With CC(=O)C1CC[C@]2(C)C(CCC3C4C(C(C)C)CC[C@]4(COC(=O)c4ccccc4)CC[C@]32C)[C@@]1(C)CCC#N (stereo partly drawn) [compound 20, 28-Benzoyloxy-2-cyano-4-oxo-3,4-seco-3,23-dinorlupane] the IC50 [1, 12] was greater than 100 µM, the IC50 [2, 13] was greater than 100 µM and the IC50 [3, 14] was greater than 100 µM. The IC50 [4, 15] was greater than 100 µM, the IC50 [5, 16] was greater than 100 µM and the IC50 [6, 17] was greater than 100 µM. The IC50 [7, 18] was greater than 100 µM, the IC50 [8, 19] was greater than 200 µM and the IC50 [9, 20] was greater than 100 µM. For the same compound, the IC50 [10, 21] was greater than 200 µM and the melting point was 185.8 °C.

Source: PMC10298530, “Synthesis and Anticancer Activity of A-Ring-Modified Derivatives of Dihydrobetulin” (International Journal of Molecular Sciences, 2023)
